Data from patent publication US20030157197A1, “PLANT-DERIVED ANTI-PARASITIC AND ANTIFUNGAL COMPOUNDS AND METHODS OF EXTRACTING THE COMPOUNDS” (priority 1998, published 2003).
In brackets after ≈: the same amount, converted by molar mass. Where two headings read alike, the source gives them in different places. Each block holds one compound with its values, some of them ahead of it.

Experiments:
RK13 cells = tested on: RK13 cells; set-up: dose or concentration left out as unconfirmed; details: cited from earlier work
Enterocytozoon cuniculi = tested on: Enterocytozoon cuniculi; set-up: dose or concentration left out as unconfirmed; details: cited from earlier work
[1] = tested on: Plasmodium falciparum Indochina (W-2) clone; assay: in vitro antimalarial assay, [3H]hypoxanthine uptake, W-2 clone; type: cell-based; details: chloroquine-resistant
Procedure: (§1) The in vitro antimalarial assays were performed by using a modification of the semi-automated microdilution technique described earlier (Desjardins et al., 1979, Milhous et al., 1985). Two Plasmodium falciparum malaria parasite clones, designated Indochina (W-2) and Sierra Leone (D-6), were utilized in susceptibility testing. The W-2 clone is resistant to chloroquine, pyrimethamine, sulfadoxine, and quinine, and the D-6 clone is resistant to mefloquine.
(§2) The test extracts/compound, was dissolved in DMSO and serially diluted using malarial growth medium. Drug-induced reduction in uptake of titriated hypoxanthine was used as an index of inhibition of parasite growth.

[2] = tested on: Leishmania (Leishmania) chagasi, MHOM/BR/84/BA-13 promastigotes; assay: in vitro radiorespirometric microtest (RAM), antileishmanial; type: cell-based; details: for respiration / metabolic rate for 14C-substrates: 50 μg/ml for 96 h, versus vehicle control
Procedure: An in vitro radiorespirometric microtest (RAM) technique was used to evaluate the extracts/fractions or pure compounds for possible antileishmanial activity. This method, as already noted, relies on drug inhibition of parasite production of ^14CO2 from a battery of ^14C-substrates by promastigotes to detect drug-mediated parasite damage at low drug concentration within a short time. The test is quantitative, rapid, consistent, and is conducted in serum-free medium in which prior adaptation is not necessary to cultivate the so-called “difficult to grow” species.
A clinical isolate of visceral Leishmania (Leishmania) chagasi, MHOM/BR/84/BA-13, was used for this study. This isolate was selected because sensitivity to SbV was previously determined using RAM.
All ^14C-substrates were selected with specific activities as close to 40 mCi mM^−1 per carbon atom as obtainable from commercial sources.
The procedure was conducted as previously described (Jackson et al., 1989, 1990). Promastigotes were maintained in log phase growth for 3 successive transfers (48-72 h apart) prior to radiorespirometric (RAM) testing. Test samples (or PBSS, 0.1 M phosphate-buffered balanced salt solution, plus drug solvent, DMSO, for parallel control cultures) was added 24 h after the third promastigote transfer to fresh growth medium. Incubation in the presence of plant samples was continued for 96 additional hours while the parasites remained in mid-log phase growth. The test sample was tested at 50 μg ml^−1. Drug sensitivity or resistance was based on ^14C-substrate(s) (listed in Table 1) for which ^14CO2 release was decreased for drug-treated parasites compared to parallel tests of phosphate-buffered balanced salt solution and vehicle (PBSS+DMSO) controls. Each experiment consisted of parallel: (a) duplicate tests of drug-treated parasites; plus (b) duplicate tests of drug vehicle control-treated parasites; plus (c) one “nonbiological” sterility control. The nonbiological control consisted of each ^14C-substrate (one substrate per microtiter tray well), and PBSS (the same PBSS batch used to wash, to suspend the parasites, and to make drug solution). Since there were no parasites in the nonbiological control, any ^14CO2 detected was attributed either to biologic contamination (or, less likely, chemical contamination) of the ^14C-substrates resulting in breakdown of the ^14C-substrates. If radioactivity above background (10 dpm) was detected in the nonbiological control, the suspect solution(s) was replaced and the experiment was repeated.

Cladosporium cucumerinum = assay: TLC bioautographic antifungal test; type: cell-based; details: TLC plate sprayed with spore suspension
Procedure: A method similar to that of Homans and Fuchs (1970) was employed. This technique involves direct spraying of thin layer chromatograms with conidial suspensions of a test organism. About 100 μg of extract was spotted on silica gel TLC plates and developed with suitable solvent system. Dried plates were separately sprayed with either a spore suspension of Cladosporium cucumerinum, and subsequent plates with spore suspensions of Cladosporium carrionii, Cladosporium cladosporioides, Cladosporium tennuisimum (ATCC 623337) and Fonsecaea pedrosoi (ATCC 52593), in some cases to determine the spectrum of activity. The plates were then incubated in sealed humid chambers at room temperature for four days in the dark. […] The powdered rhizome of A. danellii (200 g)was continously extracted with petroleum ether (bp 40-60° C.) to exhaustion in as soxhlet extractor. The petroleum ether extracts when combined and concentrated to dryness in vacuo gave a reddish brown residue (11.41 g). The air dried marc from the above extract was again extracted with ethanol in a soxhlet extractor, extracts were concentrated to dryness under reduce pressure using the rotary evaporator at 40° C. Both extracts were tested for antifungal activity using bioautography (TLC-bioassay) as described above. […]

[3] = tested on: Plasmodium falciparum Sierra Leone (D-6) clone; assay: in vitro antimalarial assay, [3H]hypoxanthine uptake, D-6 clone; type: cell-based; details: chloroquine-susceptible
Procedure: as §1, §2

[4] = human; cited from earlier work
[5] = tested on: Trypanosoma brucei brucei Lab 110 EATRO and Trypanosoma brucei rhodesiense KETRI 243, 269, 243 As-10-3; assay: in vitro trypanosome screen, bloodstream trypomastigotes; type: cell-based; details: for IC50: Trypanosoma brucei, RHODESIENSE; for fold increase in activity: versus primary extract / related species
Procedure: The in vitro activity of 39 plant extracts was tested against four strains of animal or human-pathogenic African trypanosomes, and three strains of mammalian-pathogenic Trichomonas spp. The trypanosomes studied were Trypanosoma brucei brucei Lab 110 EATRO, which is pathogenic to cattle and other livestock, and several strains of Trypanosoma brucei rhodesiense, a parasite of humans, domestic and wild animals. Strains of T. b. rhodesiense included drug resistant clinical isolates KETRI 243 and 269 and KETRI 243 As-10-3, a highly melarsen- and diamidine-resistant clone of KETRI 243. The 39 extracts were tested in an in vitro screen using a semi-defined medium for growth of bloodstream trypomastigotes at 37° C. (Hirumi & Hirumi, 1989) to determine IC50 values (Bacchi et al., 1996). Of these, 10 had IC50values at or below 10 μg/ml and were considered sufficiently active to warrant testing of more purified extracts. Of the four secondary extracts supplied, one, aulacocarpin (III) (SU1460), derived from the primary extract SU787 of A. aulocacarpus featured a 10-15 fold increase in activity. […] Eight additional primary extracts were also tested in the trypanosome screen (Table 3). […] Aulocacarpin (III) is an extract from Aframonum aulocacarpus and has the following formula: [drawing 3]

[6] = Plasmodium falciparum, read-out: IC50
[7] = previously determined using RAM

Compound: CCNCCCNCCCNCCCNCC [1,11-diethylnorspermine]
toxicity to feeder layer RK13 cells (RK13 cells): without toxicity
effect on parasite culture (Enterocytozoon cuniculi): sterilize the culture

Compound: CCNCCCCNCCCCNCCCCNCCCCNCC [1,19-bis(ethylamino)5,10,15-triazanonadecane]
toxicity to feeder layer RK13 cells (RK13 cells): without toxicity
effect on parasite culture (Enterocytozoon cuniculi): sterilize the culture

Compound: C=C1CC[C@H]2C(C)(C)CCC[C@]2(C)[C@H]1C/C=C(/C=O)CC=O [Labda-8(17),12-diene-15,16-dial, labda-8(17),12-diene-15,16-dial]
IC50 [1]: 0.28018 mg/L (≈ 0.926 µM)
concentration inhibiting Leishmania promastigotes [2]: ≤ 50 µg
inhibition of growth of the leishmania strain ([2]; 50 μg/ml): completely inhibited
respiration / metabolic rate for 14C-substrates [2]: markedly reduced respiration
respiration / metabolic rate for 14C-substrates ([2]; listed as labdane-dial): near zero
parasite viability in culture ([2]; after a 96 hr incubation): no live parasites were observed
lowest concentration giving a clearly visible inhibition zone (Cladosporium cucumerinum): 0.5 µg
IC50 [3]: 0.09666 mg/L (≈ 0.32 µM)

Compound: Nc1nc(N)nc(Nc2ccc([As]3SCC(CO)S3)cc2)n1 (stereo not shown) [Melarsoprol, melarsoprol]
incidence of cerebral episodes [4]: 3-5%

Compound: COC(=O)C(CC[C@H]1C2(CCC3C(C)(C)[C@@H](O)CC[C@@]31C)CO2)C1CO1 (stereo partly shown) [SU1460, aulacocarpin]
IC50 [5]: 0.86 mg/L (≈ 2.35 µM)
fold increase in activity [5]: 10-15 fold

IC50 [1, 6]: 0.17 mg/L (≈ 0.594 µM)
IC50 [3, 6]: 0.124 mg/L (≈ 0.433 µM)
Compound: COc1cc(O)c2c(c1)O[C@H](c1ccc(O)cc1)CC2=O [Sakuranetin]
antileishmanial activity ([2]; in vitro): strongest antileishmanial activity

Compound: CC1(C)CCC[C@@]2(C)[C@H]1CC[C@@]1(CO1)[C@@H]2C/C=C(/C=O)CC=O [aframodial]
IC50 [5]: 0.86 mg/L (≈ 2.7 µM)
fold increase in activity [5]: 10-11 fold

Compound: sodium antimony gluconate [Pentostam, reference compound]
concentration at which the isolate is sensitive, as Sb [2, 7]: 6 μg ml^−1 Sb
concentration at which the isolate is sensitive, as drug [2, 7]: 20 μg ml^−1 drug
